Like-named read-outs stand apart in the source and are kept apart here.

Here are results for six substances from US20210221848A1, “POLYMYXIN DERIVATIVES AND THEIR USE IN COMBINATION THERAPY TOGETHER WITH DIFFERENT ANTIBIOTICS” (priority 2014, published 2021).

Experiment [1] deals with E. coli strains with elevated MICs to Polymyxin B. The experiment can be described thus: MIC against strains with elevated MICs to Polymyxin B. Format: cell-based, Escherichia coli. Particulars: Table 6D; for MIC E. coli 058: strain 058, elevated MIC to Polymyxin B; for MIC E. coli 059: strain 059, elevated MIC to Polymyxin B; for MIC E. coli 060: strain 060, elevated MIC to Polymyxin B; for MIC E. coli 061: strain 061, elevated MIC to Polymyxin B. The protocol:
(§1) The inoculum was prepared by making a direct suspension of isolated colonies (selected from an 18-24 hour Mueller-Hinton agar plate) adjusted to the 0.5 McFarland standard. […] The assays were performed in duplicate. […] In cases where the duplicate values varied by less than 2-fold, the lower of the two values is reported. If a variation of greater than 2-fold was observed, the assay was considered non-valid. Several of the compounds were subjected to multiple tests, and where this is the case, the MIC reflects the modal value obtained.
(§2) The Further Synthesis Examples were tested against a range of Gram negative bacteria, and tested for HK-2 cell toxicity. All the worked examples, including the Synthesis and Further Synthesis Examples, were also tested against a range of Gram negative bacteria that are resistant to Polymyxin B (i.e. those strains where Polymyxin B has an elevated MIC value).

Experiment [2] concerns P. aeruginosa.
Experiment [3] has as its system K. pneumoniae.
Experiment [4] relates to P. aeruginosa strains with elevated MICs to Polymyxin B. As to the kind of experiment: MIC against strains with elevated MICs to Polymyxin B. The format is cell-based, Pseudomonas aeruginosa. Particulars: Table 6D; for MIC P. aeruginosa 065: strain 065, elevated MIC to Polymyxin B; for MIC P. aeruginosa 066: strain 066, elevated MIC to Polymyxin B; for MIC P. aeruginosa 067: strain 067, elevated MIC to Polymyxin B. The protocol: as §1, §2

In experiment [5] the test system is E. coli.
Experiment [6] relates to K. pneumoniae strains with elevated MICs to Polymyxin B. As to the kind of experiment: MIC against strains with elevated MICs to Polymyxin B. The format is cell-based, Klebsiella pneumoniae. Particulars: Table 6D; for MIC K. pneumoniae 063: strain 063, elevated MIC to Polymyxin B; for MIC K. pneumoniae 062: strain 062, elevated MIC to Polymyxin B; for MIC K. pneumoniae 064: strain 064, elevated MIC to Polymyxin B; for MIC K. pneumoniae 655: strain 655, elevated MIC to Polymyxin B. The protocol:
as §1, §2

Experiment [7] deals with A. baumanii strains with elevated MICs to Polymyxin B. The experiment is described as above. Format: cell-based, Acinetobacter baumannii. Particulars: Table 6D; for MIC A. baumannii 053: strain 053, elevated MIC to Polymyxin B; for MIC A. baumannii 068: strain 068, elevated MIC to Polymyxin B; for MIC A. baumannii 056: strain 056, elevated MIC to Polymyxin B; for MIC A. baumannii 070: strain 070, elevated MIC to Polymyxin B. The protocol: as §1, §2

The subject of experiment [8] is A. baumannii.
The mark [9] stands for this setting: absence of a second agent, Table 6B.

With “1-(2- hydroxybenzyl)pi- perazine-2- carbonyl Polymyxin B nonapeptide [Example D67]”, in experiment [1], the “MIC E. coli 058” value amounted to 8 micrograms/mL, the “MIC E. coli 059” value is 64 micrograms/mL and the “MIC E. coli 060” value is 16 micrograms/mL. Moreover, in experiment [2] (sole activity, Table 6C), the “MIC, P. aeruginosa ATCC 27853” value is 0.25 micrograms/mL and the “MIC, P. aeruginosa CCUG 59347” value came out at 0.5 micrograms/mL. Further, in experiment [3] (sole activity, Table 6C), the “MIC, K. pneumoniae ATCC 4352” value is given as 0.03 micrograms/mL and the “MIC, K. pneumoniae ATCC BAA-2146” value is 0.06 micrograms/mL. In addition, the “MIC P. aeruginosa 065” value in experiment [4] was determined as 4 micrograms/mL. Further, in experiment [5] (sole activity, Table 6C), the “MIC, E. coli ATCC 25922” value turned out to be 0.06 micrograms/mL and the “MIC, E. coli NCTC 13441” value was 0.125 micrograms/mL. Also, in experiment [6], the “MIC K. pneumoniae 063” value turned out to be 128 micrograms/mL. Also, in experiment [7], the “MIC A. baumannii 053” value is listed as >256 micrograms/mL and the “MIC A. baumannii 068” value came to 64 micrograms/mL. Also, in experiment [8] (sole activity, Table 6C), the “MIC, A. baumannii ATCC BAA-747” value is 0.5 micrograms/mL and the “MIC, A. baumannii NCTC 13424” value was determined as 0.25 micrograms/mL.
In the case of “1-(2- trifluoromethylben- zyl)piperazine- 2-carbonyl L-Thr- L-Dap-polymyxin B heptapeptide [Example D71]”, in experiment [1], the “MIC E. coli 058” value is listed as 1 micrograms/mL, the “MIC E. coli 059” value is reported as 8 micrograms/mL, the “MIC E. coli 060” value is 4 micrograms/mL and the “MIC E. coli 061” value was found to be 8 micrograms/mL. Further, in experiment [2] (sole activity, Table 6C), the “MIC, P. aeruginosa ATCC 27853” value was found to be 0.5 micrograms/mL and the “MIC, P. aeruginosa CCUG 59347” value was determined as 1 micrograms/mL. Further, in experiment [3] (sole activity, Table 6C), the “MIC, K. pneumoniae ATCC 4352” value is listed as 0.25 micrograms/mL and the “MIC, K. pneumoniae ATCC BAA-2146” value is reported as 0.5 micrograms/mL. In experiment [4], the “MIC P. aeruginosa 065” value was 0.5 micrograms/mL, the “MIC P. aeruginosa 066” value amounted to 1 micrograms/mL and the “MIC P. aeruginosa 067” value amounted to 16 micrograms/mL. In experiment [5] (sole activity, Table 6C), the “MIC, E. coli ATCC 25922” value is given as 0.25 micrograms/mL and the “MIC, E. coli NCTC 13441” value was 0.25 micrograms/mL. For the same substance, in experiment [6], the “MIC K. pneumoniae 062” value was found to be 32 micrograms/mL, the “MIC K. pneumoniae 063” value amounted to 16 micrograms/mL, the “MIC K. pneumoniae 064” value was determined as 4 micrograms/mL and the “MIC K. pneumoniae 655” value worked out at 32 micrograms/mL. Moreover, in experiment [7], the “MIC A. baumannii 053” value stood at 64 micrograms/mL, the “MIC A. baumannii 056” value is listed as 16 micrograms/mL, the “MIC A. baumannii 068” value came out at 4 micrograms/mL and the “MIC A. baumannii 070” value is on record as 8 micrograms/mL. In experiment [8] (sole activity, Table 6C), the “MIC, A. baumannii ATCC BAA-747” value amounted to 0.5 micrograms/mL and the “MIC, A. baumannii NCTC 13424” value is recorded as 0.25 micrograms/mL.
Turning to “3-aminomethyl- undecanoyl L- Thr-L-Dap- polymyxin B heptapeptide [Example D91]”, in experiment [1], the “MIC E. coli 058” value came out at 1 micrograms/mL, the “MIC E. coli 059” value was 0.5 micrograms/mL, the “MIC E. coli 060” value is given as 2 micrograms/mL and the “MIC E. coli 061” value was 4 micrograms/mL. In addition, in experiment [2] (sole activity, Table 6C), the “MIC, P. aeruginosa ATCC 27853” value stood at 0.5 micrograms/mL and the “MIC, P. aeruginosa CCUG 59347” value turned out to be 0.5 micrograms/mL. In addition, in experiment [3] (sole activity, Table 6C), the “MIC, K. pneumoniae ATCC 4352” value amounted to 0.25 micrograms/mL. Further, in experiment [4], the “MIC P. aeruginosa 066” value is reported as 2 micrograms/mL and the “MIC P. aeruginosa 067” value was determined as 16 micrograms/mL. Also, the “MIC, E. coli ATCC 25922” value in experiment [5] (sole activity, Table 6C) was determined as 0.5 micrograms/mL. Besides, in experiment [6], the “MIC K. pneumoniae 062” value was 8 micrograms/mL, the “MIC K. pneumoniae 063” value is given as 16 micrograms/mL, the “MIC K. pneumoniae 064” value is reported as 4 micrograms/mL and the “MIC K. pneumoniae 655” value is 8 micrograms/mL. In addition, in experiment [7], the “MIC A. baumannii 053” value is 8 micrograms/mL, the “MIC A. baumannii 056” value is 2 micrograms/mL, the “MIC A. baumannii 068” value is 2 micrograms/mL and the “MIC A. baumannii 070” value is listed as 1 micrograms/mL. In addition, in experiment [8] (sole activity, Table 6C), the “MIC, A. baumannii ATCC BAA-747” value amounted to 0.25 micrograms/mL and the “MIC, A. baumannii NCTC 13424” value came to 0.5 micrograms/mL.
Regarding “3-aminomethyl- undecanoyl L- Thr-L-Dap- polymyxin B heptapeptide [Example D92]”, in experiment [1], the “MIC E. coli 058” value is given as 0.5 micrograms/mL, the “MIC E. coli 059” value was found to be 0.5 micrograms/mL, the “MIC E. coli 060” value is given as 1 micrograms/mL and the “MIC E. coli 061” value turned out to be 4 micrograms/mL. In addition, in experiment [2] (sole activity, Table 6C), the “MIC, P. aeruginosa ATCC 27853” value is given as 0.25 micrograms/mL and the “MIC, P. aeruginosa CCUG 59347” value is recorded as 0.5 micrograms/mL. Further, in experiment [3] (sole activity, Table 6C), the “MIC, K. pneumoniae ATCC 4352” value is recorded as 0.25 micrograms/mL. Further, in experiment [4], the “MIC P. aeruginosa 065” value was determined as 0.5 micrograms/mL, the “MIC P. aeruginosa 066” value amounted to 1 micrograms/mL and the “MIC P. aeruginosa 067” value is listed as 8 micrograms/mL. The “MIC, E. coli ATCC 25922” value in experiment [5] (sole activity, Table 6C) is given as 0.5 micrograms/mL. Further, in experiment [6], the “MIC K. pneumoniae 062” value is on record as 2 micrograms/mL, the “MIC K. pneumoniae 063” value stood at 8 micrograms/mL, the “MIC K. pneumoniae 064” value is 2 micrograms/mL and the “MIC K. pneumoniae 655” value is 4 micrograms/mL. Also, in experiment [7], the “MIC A. baumannii 053” value was 8 micrograms/mL, the “MIC A. baumannii 056” value came out at 4 micrograms/mL, the “MIC A. baumannii 068” value is 1 micrograms/mL and the “MIC A. baumannii 070” value is reported as 1 micrograms/mL. In experiment [8] (sole activity, Table 6C), the “MIC, A. baumannii ATCC BAA-747” value turned out to be 0.5 micrograms/mL and the “MIC, A. baumannii NCTC 13424” value is reported as 0.25 micrograms/mL.
In the case of “3-aminomethyl- undecanoyl polymyxin B nonapeptide [Example D32]”, in experiment [1], the “MIC E. coli 059” value came to 1 micrograms/mL, the “MIC E. coli 060” value stood at 2 micrograms/mL and the “MIC E. coli 061” value came out at 8 micrograms/mL. In addition, in experiment [2] (setting [9]), the “MIC, P. aeruginosa ATCC 27853” value is 0.5 micrograms/mL and the “MIC, P. aeruginosa CCUG 59347” value worked out at 1 micrograms/mL. Also, the “MIC, K. pneumoniae ATCC 4352” value in experiment [3] (setting [9]) was determined as 1 micrograms/mL. Also, in experiment [4], the “MIC P. aeruginosa 066” value is reported as 4 micrograms/mL and the “MIC P. aeruginosa 067” value was found to be 32 micrograms/mL. In experiment [5] (setting [9]), the “MIC, E. coli ATCC 25922” value came to 1 micrograms/mL and the “MIC, E. coli NCTC 13441” value is listed as 1 micrograms/mL. In addition, in experiment [6], the “MIC K. pneumoniae 062” value amounted to 8 micrograms/mL, the “MIC K. pneumoniae 063” value was 32 micrograms/mL, the “MIC K. pneumoniae 064” value is 2 micrograms/mL and the “MIC K. pneumoniae 655” value is reported as 32 micrograms/mL. For the same substance, in experiment [7], the “MIC A. baumannii 053” value is reported as 32 micrograms/mL, the “MIC A. baumannii 056” value was found to be 8 micrograms/mL, the “MIC A. baumannii 068” value was determined as 4 micrograms/mL and the “MIC A. baumannii 070” value stood at 8 micrograms/mL. In experiment [8] (setting [9]), the “MIC, A. baumannii ATCC BAA-747” value came out at 2 micrograms/mL and the “MIC, A. baumannii NCTC 13424” value is 1 micrograms/mL.
On to “(cis-5- cyclohexylpiperidine)- 3-carbonyl L-Thr-L- Dap-polymyxin B heptapeptide [Example D44]”, for which, in experiment [1], the “MIC E. coli 058” value was 2 micrograms/mL. Further, in experiment [2] (setting [9]), the “MIC, P. aeruginosa ATCC 27853” value came to 0.25 micrograms/mL and the “MIC, P. aeruginosa CCUG 59347” value was 0.5 micrograms/mL. In addition, the “MIC, K. pneumoniae ATCC BAA-2146” value in experiment [3] (setting [9]) is recorded as 0.5 micrograms/mL. For the same substance, in experiment [4], the “MIC P. aeruginosa 065” value was 1 micrograms/mL, the “MIC P. aeruginosa 066” value came to 0.5 micrograms/mL and the “MIC P. aeruginosa 067” value came out at 64 micrograms/mL. Besides, in experiment [5] (setting [9]), the “MIC, E. coli ATCC 25922” value was found to be 1 micrograms/mL and the “MIC, E. coli NCTC 13441” value is listed as 0.5 micrograms/mL. In experiment [6], the “MIC K. pneumoniae 064” value came out at 2 micrograms/mL and the “MIC K. pneumoniae 655” value is reported as 32 micrograms/mL. In addition, the “MIC, A. baumannii ATCC BAA-747” value in experiment [8] (setting [9]) is listed as 0.25 micrograms/mL.
